Laboratory results reported in ChEMBL document CHEMBL6096722, “A Hypoxia-Activated BODIPY-Azo Anticancer Prodrug for Bimodal Chemo-Photodynamic Therapy” (J Med Chem, 2025).
Calls of active or inactive are those of the source. The rule behind the calls is not given here.

Key:
[1] = Photostability of compound in PBS buffer at pH 7.4 at 10 uM under 20 W/cm2 white LED light irradiation measured upto 10 mins by absorption based assay; type: physicochemical; details: pH 7.4, 10 min
[2] = Photostability of compound in PBS buffer at pH 7.4 at 10 uM under 20 W/cm2 white LED light irradiation measured for 60 mins by absorption based assay; type: physicochemical; details: pH 7.4, 1 h
[3] = Induction of singlet oxygen quantum yield under irradiation with 590 nm LED light by DPBF based assay; type: functional
[4] = test system: A-375; assay: Cytotoxicity against human A-375 cells assessed as cell viability at 0.25 to 16 uM incubated for 4 hrs by CCK-8 assay; type: functional; details: dose 0.25-16 µM
[5] = test system: A-375; assay: Cytotoxicity against human A-375 cells assessed as cell viability at 100 uM incubated for 4 hrs by CCK-8 assay; type: functional; details: read-out: Activity
[6] = Cytotoxicity against human HUVEC cells assessed as cell viability at upto 100 uM incubated for 4 hrs by CCK-8 assay; type: toxicity, cell-based; details: read-out: Activity
[7] = test system: A-375; assay: Cytotoxicity against human A-375 cells assessed as cell viability at 100 uM preincubated with compound for 4 hrs followed by light irradiation for 30 mins and measured after 24 hrs by CCK-8 assay; type: functional, cell-based; details: time 28.5 hrs
[8] = test system: A-375; assay: Cytotoxicity against human A-375 cells assessed as cell viability at upto 100 uM preincubated with compound for 4 hrs followed by light irradiation for 30 mins and measured after 24 hrs under hypoxic condition by CCK-8 assay; type: functional, cell-based; details: time 28.5 hrs
[9] = test system: A-375; assay: Cytotoxicity against human A-375 cells assessed as cell viability at upto 100 uM incubated for 4 hrs under hypoxic condition by CCK-8 assay; type: functional, cell-based
[10] = test system: A-375; assay: Antitumor activity against human A-375 cells assessed as cell viability incubated for 4 hrs under normoxic condition by MTT assay; type: functional, cell-based; details: A-375, 4 h
[11] = test system: A-375; assay: Antitumor activity against human A-375 cells assessed as cell viability incubated for 4 hrs under hypoxia condition by MTT assay; type: functional, cell-based; details: A-375, 4 h
[12] = test system: A-375; assay: Antitumor activity against human A-375 cells assessed as cell viability preincubated with compound for 4 hrs followed by light irradiation for 30 mins and measured after 24 hrs under normoxic condition by MTT assay; type: functional, cell-based; details: A-375, light or radiation study
[13] = test system: A-375; assay: Antitumor activity against human A-375 cells assessed as cell viability preincubated with compound for 4 hrs followed by light irradiation for 30 mins and measured after 24 hrs under hypoxic condition by MTT assay; type: functional, cell-based; details: A-375, light or radiation study
[14] = Selectivity index, ratio of IC50 for antitumor activity against human A-375 cells assessed as cell viability incubated for 4 hrs under hypoxic condition by MTT assay to IC50 for antitumor activity against human A-375 cells assessed as cell viability incubated for 4 hrs under normoxic condition by MTT assay; type: functional
[15] = test system: A-375; assay: Induction of ROS generation in human A-375 cells assessed as increase in green fluorescence at 10 uM preincubated with compound for 24 hrs followed by light irradiation for 30 mins and measured after 30 mins by DCFH-DA staining based fluorescence microscopic analysis; type: functional, cell-based; details: time 25.0 hrs
[16] = test system: A-375; assay: Induction of ROS generation in human A-375 cells assessed as increase fluorescence intensity at 10 uM incubated with compound for 24 hrs by DCFH-DA staining based analysis; type: functional, cell-based
[17] = Retention time of the compound by HPLC-MASS analysis; type: physicochemical
[18] = test system: A-375; assay: Induction of apoptosis in human A-375 cells assessed as viable cells at 2 uM incubated for 24 hrs under hypoxia condition by Annexin V-FITC staining based flow cytometry analysis; type: functional; details: read-out: Activity
[19] = test system: A-375; assay: Induction of apoptosis in human A-375 cells assessed as early apoptotic cells at 2 uM incubated for 24 hrs under hypoxia condition by Annexin V-FITC staining based flow cytometry analysis; type: functional
[20] = test system: A-375; assay: Induction of apoptosis in human A-375 cells assessed as late apoptotic cells at 2 uM incubated for 24 hrs under hypoxia condition by Annexin V-FITC staining based flow cytometry analysis; type: functional
[21] = test system: A-375; assay: Induction of apoptosis in human A-375 cells assessed as necrotic cells at 2 uM incubated for 24 hrs under hypoxia condition by Annexin V-FITC staining based flow cytometry analysis; type: functional
[22] = test system: A-375; assay: Induction of apoptosis in human A-375 cells assessed as viable cells at 4 uM incubated for 24 hrs under hypoxia condition by Annexin V-FITC staining based flow cytometry analysis; type: functional; details: read-out: Activity
[23] = test system: A-375; assay: Induction of apoptosis in human A-375 cells assessed as early apoptotic cells at 4 uM incubated for 24 hrs under hypoxia condition by Annexin V-FITC staining based flow cytometry analysis; type: functional
[24] = test system: A-375; assay: Induction of apoptosis in human A-375 cells assessed as late apoptotic cells at 4 uM incubated for 24 hrs under hypoxia condition by Annexin V-FITC staining based flow cytometry analysis; type: functional
[25] = test system: A-375; assay: Induction of apoptosis in human A-375 cells assessed as necrotic cells at 4 uM incubated for 24 hrs under hypoxia condition by Annexin V-FITC staining based flow cytometry analysis; type: functional
[26] = test system: A-375; assay: Induction of apoptosis in human A-375 cells assessed as viable cells at 6 uM incubated for 24 hrs under hypoxia condition by Annexin V-FITC staining based flow cytometry analysis; type: functional; details: read-out: Activity
[27] = test system: A-375; assay: Induction of apoptosis in human A-375 cells assessed as early apoptotic cells at 6 uM incubated for 24 hrs under hypoxia condition by Annexin V-FITC staining based flow cytometry analysis; type: functional
[28] = test system: A-375; assay: Induction of apoptosis in human A-375 cells assessed as late apoptotic cells at 6 uM incubated for 24 hrs under hypoxia condition by Annexin V-FITC staining based flow cytometry analysis; type: functional
[29] = test system: A-375; assay: Induction of apoptosis in human A-375 cells assessed as necrotic cells at 6 uM incubated for 24 hrs under hypoxia condition by Annexin V-FITC staining based flow cytometry analysis; type: functional
[30] = test system: A-375; assay: Induction of apoptosis in human A-375 cells assessed as viable cells at 2 uM incubated for 24 hrs under normoxia condition by Annexin V-FITC staining based flow cytometry analysis; type: functional; details: read-out: Activity
[31] = test system: A-375; assay: Induction of apoptosis in human A-375 cells assessed as early apoptotic cells at 2 uM incubated for 24 hrs under normoxia condition by Annexin V-FITC staining based flow cytometry analysis; type: functional
[32] = test system: A-375; assay: Induction of apoptosis in human A-375 cells assessed as late apoptotic cells at 2 uM incubated for 24 hrs under normoxia condition by Annexin V-FITC staining based flow cytometry analysis; type: functional
[33] = test system: A-375; assay: Induction of apoptosis in human A-375 cells assessed as necrotic cells at 2 uM incubated for 24 hrs under normoxia condition by Annexin V-FITC staining based flow cytometry analysis; type: functional
[34] = test system: A-375; assay: Induction of apoptosis in human A-375 cells assessed as viable cells at 4 uM incubated for 24 hrs under normoxia condition by Annexin V-FITC staining based flow cytometry analysis; type: functional; details: read-out: Activity
[35] = test system: A-375; assay: Induction of apoptosis in human A-375 cells assessed as early apoptotic cells at 4 uM incubated for 24 hrs under normoxia condition by Annexin V-FITC staining based flow cytometry analysis; type: functional
[36] = test system: A-375; assay: Induction of apoptosis in human A-375 cells assessed as late apoptotic cells at 4 uM incubated for 24 hrs under normoxia condition by Annexin V-FITC staining based flow cytometry analysis; type: functional
[37] = test system: A-375; assay: Induction of apoptosis in human A-375 cells assessed as necrotic cells at 4 uM incubated for 24 hrs under normoxia condition by Annexin V-FITC staining based flow cytometry analysis; type: functional
[38] = test system: A-375; assay: Induction of apoptosis in human A-375 cells assessed as viable cells at 6 uM incubated for 24 hrs under normoxia condition by Annexin V-FITC staining based flow cytometry analysis; type: functional; details: read-out: Activity
[39] = test system: A-375; assay: Induction of apoptosis in human A-375 cells assessed as early apoptotic cells at 6 uM incubated for 24 hrs under normoxia condition by Annexin V-FITC staining based flow cytometry analysis; type: functional
[40] = test system: A-375; assay: Induction of apoptosis in human A-375 cells assessed as late apoptotic cells at 6 uM incubated for 24 hrs under normoxia condition by Annexin V-FITC staining based flow cytometry analysis; type: functional
[41] = test system: A-375; assay: Induction of apoptosis in human A-375 cells assessed as necrotic cells at 6 uM incubated for 24 hrs under normoxia condition by Annexin V-FITC staining based flow cytometry analysis; type: functional
[42] = test system: A-375; assay: Antitumor activity against human A-375 cells xenografted in male BALB/c mouse assessed as tumor growth inhibition at 2.9 mg/ml, ip measured for 60 mins with light irradiation; type: functional; details: A-375, light or radiation study, 1 h, read-out: TGI
[43] = test system: A-375; assay: Cytotoxicity against human A-375 cells assessed as cell viability at >1 uM preincubated with compound for 4 hrs followed by light irradiation for 30 mins and measured after 24 hrs by CCK-8 assay; type: functional, cell-based; details: time 28.5 hrs
[44] = test system: A-375; assay: Anticancer activity against human A-375 cells measured at 12 to 30 hrs under hypoxic condition; type: functional, cell-based; details: time 12-30 hrs
[45] = test system: A-375; assay: Anticancer activity against human A-375 cells measured at 24 hrs under hypoxic condition; type: functional, cell-based
[46] = Toxicity in BALB/c mouse assessed change in body weight at 2.9 mg/ml, ip measured for 60 mins with light irradiation; type: organism-based; details: in vivo, 1 h
[47] = Toxicity in BALB/c mouse assessed at 2.9 mg/ml, ip assessed as morphological changes in tumor measured for 60 mins with light irradiation by H and E staining based analysis; type: organism-based; details: in vivo, 1 h

CC1=C(Br)C(C)=[N+]2C1=C(c1ccccc1)c1c(C)c(Br)c(/C=C/c3ccc(OCc4ccc(/N=N/c5ccc(N(CCCl)CCCl)cc5)cc4)cc3)n1[B-]2(F)F
Stability [1]: Stable | Stability [2]: Stable | Activity [3]: Active | Activity [4]: >80% | viability at 100 µM [5]: ~50% | viability at 4 h, 100 µM [6]: > 90% | Activity [7]: Active | Activity [8]: Active | Activity [9]: Active | IC50 [10]: > 100 µM | IC50 [11]: > 16 µM | IC50 [12]: 1.35 µM | IC50 [13]: 4.18 µM | Ratio IC50 [14]: 11.02 | Activity [15]: Active | Activity [16]: Active | Retention_time [17]: 1.422 min | viability at 2 µM [18]: 96.3% | Activity [19]: 0.809% | Activity [20]: 1.663% | Activity [21]: 13.664% | viability at 4 µM [22]: 94.8% | Activity [23]: 0.147% | Activity [24]: 3.098% | Activity [25]: 0.975% | viability at 6 µM [26]: 93.6% | Activity [27]: 1.832% | Activity [28]: 3.285% | Activity [29]: 1.274% | viability at 2 µM [30]: 92.7% | Activity [31]: 4.467% | Activity [32]: 2.806% | Activity [33]: 0.058% | viability at 4 µM [34]: 85.5% | Activity [35]: 7.534% | Activity [36]: 6.769% | Activity [37]: 0.185% | viability at 6 µM [38]: 71.7% | Activity [39]: 12.663% | Activity [40]: 15.404% | Activity [41]: 0.247% | inhibition in vivo at 2900 µg/mL [42]: 92%

CC1=C(Br)C(C)=[N+]2C1=C(c1ccccc1)c1c(C)c(Br)c(/C=C/c3ccc(O)cc3)n1[B-]2(F)F
Stability [1]: Stable | Stability [2]: Stable | Activity [3]: Active | Activity [4]: >80% | viability at 100 µM [5]: ~50% | viability at 4 h, 100 µM [6]: > 90% | Activity [7]: Active | Activity [43]: Active | Activity [8]: Active | Activity [9]: Active | IC50 [10]: > 100 µM | IC50 [11]: > 16 µM | IC50 [12]: 6.99 µM | IC50 [13]: 0.77 µM | Ratio IC50 [14]: 309.63 | Activity [15]: Active | Activity [16]: Active | Retention_time [17]: 3.5 min | Activity [44]: Active | Activity [45]: Active | inhibition in vivo at 2900 µg/mL [42]: 71% | Activity [46]: Non-toxic | Activity [47]: Non-toxic
